# Source: patent publication US20160158149A1, “Inhalable Pharmaceutical Compositions and the Inhaler Devices Containing Them” (priority 2013, published 2016)
# How the values were obtained:
# [1] = Fine particle dose (FPD) of the inhaler assembly, invention versus conventional; assay type: physicochemical; settings: aerodynamic diameter 1 to 5 μm, assembly of the invention relative to conventional disk-shaped inhaler
# Method: (§1) Pharmacokinetic data of an assembly for an inhaler according to the different embodiments of the invention described above together with the different variants of the pharmaceutical composition of the invention including salmeterol xinafoate and fluticasone proprionate were determined in comparison to the pharmacokinetic data of a conventional assembly including a disk-shaped inhaler housing a mixture of salmeterol xinafoate and fluticasone proprionate. Such a disk shaped inhaler is for example described in the PCT application WO 2001/97886 A1.
# (§2) In particular, the fine particle dose (FPD), which is the amount of particles with an aerodynamic diameter of between 1 to 5 μm, the area under the curve (AUC), corresponds to the integral of the plasma concentration of an administered pharmaceutical drug substance versus an interval of definite time and Cmax, which is the maximum concentration measured for a pharmaceutical in the blood of test persons after it was administrated and prior to the administration of a second dose, were determined.
# [2] = Pharmacokinetic data (AUC, Cmax) after inhalation, invention versus conventional assembly; assay type: in vivo, test persons
# Method: as §1, §2
Ratio invention/conventional FPD 1-5 μm [1],"Ratio invention/conventional Point estimate Cmax ([2]; maximum concentration in blood of test persons, assembly of the invention relative to conventional disk-shaped inhaler)","Ratio invention/conventional Point estimate AUC ([2]; plasma concentration versus time, assembly of the invention relative to conventional disk-shaped inhaler)","Ratio invention/conventional Point estimate AUC ([2]; human, in vivo)","Ratio invention/conventional Point estimate Cmax ([2]; human, in vivo, inhaled or intranasal)",SMILES
0.93,1.66,1.42,–,–,"CCC(=O)O[C@]1(C(=O)SCF)[C@H](C)C[C@H]2[C@@H]3C[C@H](F)C4=CC(=O)C=C[C@]4(C)[C@@]3(F)[C@@H](O)C[C@@]21C [Fluticasone, fluticasone proprionate]"
0.90,–,–,1.25,1.69,"OCc1cc(C(O)CNCCCCCCOCCCCc2ccccc2)ccc1O (stereo not drawn) [Salmeterol, salmeterol xinafoate]"
